Laboratory results: ChEMBL document CHEMBL5512636, “Novel 6-hydroxybenzothiazol-2-carboxamides as potent and selective monoamine oxidase B inhibitors endowed with neuroprotective activity” (Eur J Med Chem, 2024)

Experiments:
[1] = target: T1, Amine oxidase [flavin-containing] A (Homo sapiens, UniProt P21397); test: Inhibition of recombinant human MAO-A expressed in baculovirus infected insect cells using kynuramine as substrate at 10 uM by fluorescence based method relative to control; conditions: Insect cell
T1 sequence (P21397 whole entry): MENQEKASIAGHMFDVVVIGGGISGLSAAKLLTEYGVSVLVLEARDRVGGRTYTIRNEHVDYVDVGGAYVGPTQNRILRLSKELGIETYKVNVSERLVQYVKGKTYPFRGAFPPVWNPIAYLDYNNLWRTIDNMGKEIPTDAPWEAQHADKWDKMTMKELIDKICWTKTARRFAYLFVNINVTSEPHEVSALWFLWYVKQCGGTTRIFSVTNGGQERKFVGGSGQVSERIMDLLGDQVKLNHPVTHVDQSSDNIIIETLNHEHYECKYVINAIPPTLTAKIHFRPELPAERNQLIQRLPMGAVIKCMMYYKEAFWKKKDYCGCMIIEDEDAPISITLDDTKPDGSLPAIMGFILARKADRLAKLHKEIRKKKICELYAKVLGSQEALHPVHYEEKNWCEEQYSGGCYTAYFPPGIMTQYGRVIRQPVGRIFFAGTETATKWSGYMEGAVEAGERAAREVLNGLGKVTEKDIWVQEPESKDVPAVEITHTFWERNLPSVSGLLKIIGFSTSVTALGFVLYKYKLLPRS

[2] = target: T2, Amine oxidase [flavin-containing] B (Homo sapiens, UniProt P27338); test: Inhibition of recombinant human MAO-B expressed in baculovirus infected insect cells using kynuramine as substrate at 10 uM by fluorescence based method relative to control; conditions: Insect cell
T2 sequence (P27338 whole entry): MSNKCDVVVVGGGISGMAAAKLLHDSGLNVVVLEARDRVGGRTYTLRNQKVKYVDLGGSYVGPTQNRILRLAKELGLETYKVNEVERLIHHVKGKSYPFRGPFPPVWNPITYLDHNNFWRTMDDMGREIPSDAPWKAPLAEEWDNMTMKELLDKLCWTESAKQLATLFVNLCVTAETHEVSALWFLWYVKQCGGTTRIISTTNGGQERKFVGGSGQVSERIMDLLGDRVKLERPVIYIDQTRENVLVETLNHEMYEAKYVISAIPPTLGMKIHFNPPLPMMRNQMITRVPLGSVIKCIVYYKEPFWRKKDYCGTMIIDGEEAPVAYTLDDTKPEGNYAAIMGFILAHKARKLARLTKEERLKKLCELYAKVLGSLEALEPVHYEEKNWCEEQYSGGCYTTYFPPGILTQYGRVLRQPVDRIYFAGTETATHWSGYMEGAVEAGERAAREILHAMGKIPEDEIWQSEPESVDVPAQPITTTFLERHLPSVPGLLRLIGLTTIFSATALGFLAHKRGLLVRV

[3] = target: T1, Amine oxidase [flavin-containing] A; test: biochemical
Description: Inhibition of recombinant human MAO-A expressed in baculovirus infected insect cells using kynuramine as substrate by fluorescence based method

[4] = target: T3, Amine oxidase [flavin-containing] B (Rattus norvegicus, UniProt P19643); test: Inhibition of rat brain mitochondria MAO-B using benzylamine as substrate incubated for 30 mins by absorbance based assay
T3 sequence (P19643 whole entry): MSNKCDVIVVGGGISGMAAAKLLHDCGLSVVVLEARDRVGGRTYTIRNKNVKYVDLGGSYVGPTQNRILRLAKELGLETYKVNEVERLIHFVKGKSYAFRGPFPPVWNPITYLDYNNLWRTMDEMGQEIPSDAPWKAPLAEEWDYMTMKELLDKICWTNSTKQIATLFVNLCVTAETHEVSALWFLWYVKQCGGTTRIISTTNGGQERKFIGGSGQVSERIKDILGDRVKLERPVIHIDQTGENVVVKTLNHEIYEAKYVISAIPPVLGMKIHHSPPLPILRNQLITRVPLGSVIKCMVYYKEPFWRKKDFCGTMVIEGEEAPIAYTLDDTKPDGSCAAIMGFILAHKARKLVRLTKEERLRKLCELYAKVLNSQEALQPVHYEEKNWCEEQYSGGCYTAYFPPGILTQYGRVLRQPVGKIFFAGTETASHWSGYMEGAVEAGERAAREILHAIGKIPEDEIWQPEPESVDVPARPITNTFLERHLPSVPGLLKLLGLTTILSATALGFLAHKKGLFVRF

[5] = target: T2, Amine oxidase [flavin-containing] B; test: biochemical; format: cell-based, Insect cell
Description: Inhibition of recombinant human MAO-B expressed in baculovirus infected insect cells using kynuramine as substrate by fluorescence based method

[6] = Permeability of compound by PAMPA
[7] = target: Microtubule-associated protein tau (Homo sapiens, UniProt P10636); test: Inhibition of GFP/RFP-fused tau oligomerization in human SH-SY5Y cells incubated for 2 hrs by FRET assay; format: cell-based
[8] = target: T2, Amine oxidase [flavin-containing] B; test: Inhibition of human MAO-B incubated for 30 mins by Amplex Red assay

Sequence of Microtubule-associated protein tau (P10636 whole entry, the tested form may be a part): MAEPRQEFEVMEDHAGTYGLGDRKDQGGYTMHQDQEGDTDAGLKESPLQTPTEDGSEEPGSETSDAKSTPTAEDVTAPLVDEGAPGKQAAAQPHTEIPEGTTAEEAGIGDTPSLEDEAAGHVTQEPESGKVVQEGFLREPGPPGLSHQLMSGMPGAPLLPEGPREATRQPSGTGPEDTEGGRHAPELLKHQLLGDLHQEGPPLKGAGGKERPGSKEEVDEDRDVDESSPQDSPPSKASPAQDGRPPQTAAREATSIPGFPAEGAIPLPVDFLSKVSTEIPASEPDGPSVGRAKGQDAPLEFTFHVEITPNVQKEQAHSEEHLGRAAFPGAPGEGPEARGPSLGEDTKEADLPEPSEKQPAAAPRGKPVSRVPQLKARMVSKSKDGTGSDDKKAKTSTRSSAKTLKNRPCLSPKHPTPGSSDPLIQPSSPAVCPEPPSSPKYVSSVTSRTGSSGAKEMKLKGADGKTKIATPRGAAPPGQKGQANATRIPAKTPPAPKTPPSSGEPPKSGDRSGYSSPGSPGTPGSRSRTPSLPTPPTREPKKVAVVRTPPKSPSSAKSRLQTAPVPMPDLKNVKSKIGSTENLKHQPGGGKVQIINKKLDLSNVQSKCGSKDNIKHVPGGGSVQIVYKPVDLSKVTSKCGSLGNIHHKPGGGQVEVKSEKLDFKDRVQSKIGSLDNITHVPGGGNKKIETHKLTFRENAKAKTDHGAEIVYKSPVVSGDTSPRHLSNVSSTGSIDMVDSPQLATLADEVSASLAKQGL

| inhibition at 10 µM [1] | also measured | SMILES |
| --- | --- | --- |
| 52% |  | O=C(NCc1ccc(F)cc1)c1nc2ccc(O)cc2s1 |
| 8% |  | O=C(NCc1cccc(F)c1)c1nc2ccc(O)cc2s1 |
| 19% | inhibition at 10 µM [2]: 44% | CC(C)(C)c1ccc(CNC(=O)c2nc3ccc(O)cc3s2)cc1 |
| 30% |  | O=C(NCc1ccc(-c2ccccc2)cc1)c1nc2ccc(O)cc2s1 |
| 22% | inhibition at 10 µM [2]: 53% | COc1ccc(CNC(=O)c2nc3ccc(O)cc3s2)cc1 |
| 18% | inhibition at 10 µM [2]: 30% | O=C(NCc1ccc(-c2cccs2)cc1)c1nc2ccc(O)cc2s1 |
| 15% |  | O=C(NCc1ccc([N+](=O)[O-])cc1)c1nc2ccc(O)cc2s1 |
| 32% |  | COc1ccc(CNC(=O)c2nc3ccc(O)cc3s2)cc1F |
| 21% |  | O=C(NCc1ccc(Cl)cc1)c1nc2ccc(O)cc2s1 |
| > 60% | IC50 [3]: 3.82 µM | COc1ccc2nc(C(=O)NC3CCCCC3)sc2c1 |
|  | IC50 [4]: 0.004 µM | O=C(N/N=C(\c1ccccc1)c1ccc(Cl)cc1)Nc1nc2ccc([N+](=O)[O-])cc2s1 |
| 18% | IC50 [5]: 0.552 µM | O=C(NCc1ccccc1)c1nc2ccc(O)cc2s1 |
| 24% |  | O=C(NCc1ccccc1Cl)c1nc2ccc(O)cc2s1 |
| 32% |  | O=C(NCC1CCCCC1)c1nc2ccc(O)cc2s1 |
| 26% |  | O=C(NCc1cc(C(F)(F)F)cc(C(F)(F)F)c1)c1nc2ccc(O)cc2s1 |
| 26% |  | O=C(NC1CCCCC1)c1nc2ccccc2s1 |
| 59% |  | O=C(NCC#Cc1ccccc1)c1nc2ccc(O)cc2s1 |
| 19% |  | O=C(NCc1cccc(F)c1F)c1nc2ccc(O)cc2s1 |
| 25% |  | COc1ccccc1CNC(=O)c1nc2ccc(O)cc2s1 |
| 18% |  | COc1cccc(CNC(=O)c2nc3ccc(O)cc3s2)c1 |
| 28% | inhibition at 10 µM [2]: 48% | O=C(NCc1cccnc1)c1nc2ccc(O)cc2s1 |
|  | Papp [6]: 1.25 ×10⁻⁶ cm/s | CCn1cc(C(=O)O)c(=O)c2cc(F)c(N3CCNCC3)cc21 [NORFLOXACIN] |
| 35% |  | O=C(NCc1ccc(F)cc1F)c1nc2ccc(O)cc2s1 |
| 37% |  | CCCCCCNC(=O)c1nc2ccc(O)cc2s1 |

| inhibition at 10 µM [1] | also measured | SMILES |
| --- | --- | --- |
| 51% | EC50 [7]: 7.52 µM | O=C(NCCc1cc2ccccc2[nH]1)c1nc2ccc(O)cc2s1 |
| 26% |  | Cc1cc(C)cc(CNC(=O)c2nc3ccc(O)cc3s2)c1 |
| 17% |  | O=C(c1nc2ccc(O)cc2s1)N1CCc2ccccc2C1 |
| 19% |  | Cc1cccc(CNC(=O)c2nc3ccc(O)cc3s2)c1 |
| 35% |  | O=C(NC1CCCC1)c1nc2ccc(O)cc2s1 |
| 11% |  | COc1cccc(CNC(=O)c2nc3ccc(O)cc3s2)c1OC |
| 10% | inhibition at 10 µM [2]: 41% | O=C(NCc1ccco1)c1nc2ccc(O)cc2s1 |
| 16% | inhibition at 10 µM [2]: 31% | O=C(c1nc2ccc(O)cc2s1)N1CCCCC1 |
| 26% |  | COc1ccc(CNC(=O)c2nc3ccc(O)cc3s2)c(OC)c1 |
| 33% |  | O=C(NCc1cccs1)c1nc2ccc(O)cc2s1 |
| 16% |  | O=C(NCc1ccccc1F)c1nc2ccc(O)cc2s1 |
| 43% |  | COc1cc(CNC(=O)c2nc3ccc(O)cc3s2)cc(OC)c1 |
| 13% |  | COc1ccc(CNC(=O)c2nc3ccc(O)cc3s2)cc1OC |
| 22% |  | Cc1ccc(CNC(=O)c2nc3ccc(O)cc3s2)cc1 |
| 21% |  | O=C(c1nc2ccc(O)cc2s1)N1Cc2ccc(Cl)cc2C1 |
| 32% |  | O=C(NC1CCCCC1)c1nc2ccc(O)cc2s1 |
| 13% | inhibition at 10 µM [2]: 43% | O=C(NCC(c1ccccc1)c1ccccc1)c1nc2ccc(O)cc2s1 |
| > 80% | IC50 [3]: 1.92 µM | O=C(Nc1nc2ccc(O)cc2s1)C1CCCCC1 |
| 15% |  | Cc1ccccc1CNC(=O)c1nc2ccc(O)cc2s1 |
|  | IC50 [8]: 0.06 µM | COc1ccc2sc(SC(=O)N/N=C\c3csc([N+](=O)[O-])c3)nc2c1 |
| 29% |  | O=C(NCc1ccc(F)c(F)c1)c1nc2ccc(O)cc2s1 |
| 28% |  | O=C(NCc1cccc(Cl)c1)c1nc2ccc(O)cc2s1 |
| 13% | inhibition at 10 µM [2]: 52% | O=C(NC1CC1)c1nc2ccc(O)cc2s1 |
| 36% | EC50 [7]: 10.5 µM | O=C(NCCc1ccccc1)c1nc2ccc(O)cc2s1 |
